Patent US8846653B2, “Delta-tocotrienol treatment and prevention of pancreatic cancer” (University of South Florida, priority 2006, dated 2014)

How the values were obtained:
[1] = tested on: p-cRaf, p-MEK, and p-ERK; test: Immunoblot of downstream phosphorylated targets of oncogenic Ras; format: cell-based, human; details: pancreatic cancer cell lines, 20 μM
Experimental: The Ras effector pathways Raf-MEK-ERK and PI3 kinase-AKT are important for cell proliferation and survival, respectively. Pancreatic cancer cell lines (MIA PaCa2, SW1990, BXPC3) and HPDE 6C7 cells were treated with 8-tocotrienol (20 μM) and cell lysates were collected and prepared at progressive time intervals as described above. Proteins from lysates were run by SDS PAGE and immunoblotted with the following antibodies: Ras, p-cRaf (ser 338), p-MEK1/2, MEK1/2, pERK 44/42, ERK 44/42 (Cell Signaling) and c-Raf (BD Transduction Laboratories). […] The MIA PaCa2 and SW1990 cells were then tested for AKT inhibition. The cells were treated with δ-tocotrienol (20 μM) for 24 and 48 hours and cell lysates were run by SDS-PAGE and immunoblotted for p-AKT and AKT (Cell Signaling). […] Taken together, the inhibition of downstream effectors of oncogenic Ras signaling by δ-tocotrienol without an effect on Ras protein levels may indicate a negative regulatory role of 8-tocotrienol on the function of oncogenic Ras. The pancreatic ductal epithelial cell proliferative inhibition by δ-tocotrienol was tested to see if it occurs through blocking aberrant signal transduction cascades. […]

[2] = tested on: p27^kip1 luciferase reporter; test: p27^kip1 luciferase reporter assay; format: cell-based, human; details: Mia PaCa2, 20 μM, 24 hours
Experimental: The mechanism by which δ-tocotrienol upregulates p27^kip1 protein expression was investigated using a luciferase reporter assay. Mia PaCa2 cells transfected with a p27^kip1 luciferase reporter (Wang, et al. Activation of p27Kip1 Expression by E2F1. A negative feedback mechanism. J Biol. Chem. 2005 Apr. 1; 280(13):12339-43. Epub 2005 Feb. 14) were treated with either δ-tocotrienol (20 μM) or vehicle for 24 hours and luciferase activity was then measured using a luminometer.

[3] = tested on: MIA PaCa2 xenografts; test: MIA PaCa2 luciferase xenograft tumor growth in nude mice; format: in vivo; details: 100 mg/kg/day by gavage
Experimental: (§1) Rate of growth by day 10 of treatment is less in the tocotrienol treatment group. Stable transfectants of MIA PaCa2 cells with luciferase were injected subcutaneously into nude mice. Tumor volumes were measured every 2 days with calibers and the rate of growth was determined weekly by measuring tumor luminescence using the IVIS 100 Xenogen system. Tumors of similar volume (100-150 mm^3) and rate of growth based on luminescence were randomized to receive either vehicle or δ-tocotrienol (100 mg/kg/day) by gavage for 20 days.
as §1, with “Stable” for “Rate of growth by day 10 of treatment is less in the tocotrienol treatment group. Stable”, “mice. Mice were treated with either rice bran oil (vehicle) or δ-tocotrienol (100 mg/kg/day) via gavage five times per week.” for “mice.”

[4] = tested on: SW1990 cells; test: Annexin V-FITC staining, flow cytometry for apoptosis; format: cell-based, human; details: SW1990, varying concentrations, 24 hours
Experimental: FIG. 5 is a graph wherein SW1990 pancreatic cancer cells were treated with in varying concentrations of δ-tocotrienol or vehicle for 24 hours. Cells were collected and stained with Annexin V-FITC and analyzed by flow cytometry for apoptosis.
(§2) MiaPaCa2 and HPDE 6C7 cells were cultured, as discussed above, and treated with δ-tocotrienol or vehicle. […] MiaPaCa-2, BxPc-3, and SW1990 pancreatic cancer cells were treated with in varying concentrations of δ-tocotrienol or vehicle for 24 hours. The cells were then harvested for annexin V-FITC staining and analyzed by flow cytometry.

[5] = tested on: MIA PaCa-2 cells (pZWL vector and myrAKT); test: Cell death (trypan blue) in vector and myrAKT MIA PaCa-2 cells; format: cell-based, human; details: MIA PaCa-2 vector vs myr-AKT cells, 24 hours, compared to vehicle
Experimental: FIG. 12 is a graph wherein MIA PaCa-2 cells (pZWL vector and myrAKT) were treated without serum vehicle or δ-tocotrienol (50 μM) for 24 hours, with and without a 10-hour caspase 8/3 inhibitor pretreatment. Cells were also treated with TRAIL as a positive control. Cells were then harvested, fixed, permeablized and stained with trypan blue.
To further identify the role of AKT in the apoptotic pathways noted in Example 2, functional overexpression of CA-AKT was analyzed in Mia-PaCa2 pancreatic cancer cells. MIA PaCa-2 cells were treated with pZWL vector and myrAKT, a retroviral vector encoding myristoylated AKT, with or without serum, vehicle, or δ-tocotrienol (40 or 50 μM) for 24 hours, with and without a 10-hour caspase 8 inhibitor pretreatment. Cells were also treated with TRAIL as a positive control. Cells were then harvested, fixed, permeablized and stained with trypan blue.
The myristoylated AKT rescued δ-tocotrienol suppression PI3K-AKT signaling. The MiaPaCa-2 parental cell lines were stably transfected using constitutively active myristoylated AKT in a pWZL vector construct to generate MiaPaCa-2AKT cells. […] Lastly, pretreatment with caspase 3, 8 and 9 inhibitors rescued tocotrienol induced cell death.

[6] = Plasma and mouse tissue levels by HPLC-UV; format: in vivo
Description: FIG. 52 is a graph showing tissue levels of delta-tocotrienol. *p=0.0044; # p=0.0034; † p=0.0181.

[7] = tested on: MiaPaCa-2 cells; test: Annexin V-FITC staining, flow cytometry for apoptosis; format: cell-based, human; details: MiaPaCa-2, varying concentrations, 24 hours
Experimental: FIG. 3 is a graph wherein MIA PaCa-2 pancreatic cancer cells were treated with in varying concentrations of δ-tocotrienol or vehicle for 24 hours. Cells were collected and stained with Annexin V-FITC and analyzed by flow cytometry for apoptosis.
as §2

Compound: CC(C)=CCC/C(C)=C/CC/C(C)=C/CC[C@]1(C)CCc2cc(O)cc(C)c2O1 [T3 delta, delta tocotrienol]
- downstream phosphorylated targets of oncogenic Ras p-cRaf, p-MEK, p-ERK [1]: selectively inhibited
- luciferase activity (p27^kip1 reporter) [2]: increase in luciferase activity
- rate of growth by tumor luminescence ([3]; day 10 of treatment): significantly less
- reduction in tumor growth ([3]; nude mice, vs vehicle): 50%
- induction of apoptosis (annexin V-FITC) [4]: dose dependent induction of apoptosis
- cell death [5]: induced more cell death in the vector cells than the myr-AKT cells
- plasma level ([6]; mouse plasma): detectable in plasma
- localization in the pancreas compared to liver and pancreatic tumor levels (factor) ([6]; mouse tissue): 10
- induction of apoptosis (annexin V-FITC) [7]: dose dependent induction of apoptosis
